Measurements from patent EP0603240B1, “SAFENING HERBICIDAL PYRAZOLYLSULFONYLUREAS” (priority 1991, dated 1993).

Legend:
Format in all cases: in vivo
corn [1] = assay: Example 7, Procedure II: Herbicide No. 1 + metolachlor (No. 12) with antidotes
In short: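 Herbicide plus antidote, applied in acetone, mixed into silt loam top soil used to cover corn seed beds, with untreated and herbicide-only controls. After incorporation, containers got overhead irrigation equal to 0.6 cm rainfall, then sub-irrigation in greenhouse. Percent injury scored; antidote efficacy is injury difference; duplicate averages.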

[2] = test system: barnyardgrass (Echinochloa crusgalli); assay: Example 8, Procedure II: Herbicide No. 1 + butachlor (No. 9) with antidotes
Experimental: (§1) Containers were filled and compacted with a fumigated silt loam top soil to a depth of about 1.3 cm from the top of the container. A first container was designated as an untreated control, a second container was designated as a herbicide control, and a third container was designated as a herbicide + antidote test container. Each of the containers was seeded with a crop species. A measured amount of herbicide dispersed or dissolved in acetone was applied to a measured quantity of soil. To this same quantity of soil treated with herbicide, there was added a measured amount of antidote dispersed or dissolved in acetone. The quantity of soil treated with the herbicide and antidote was thoroughly mixed to incorporate the herbicide and antidote in the soil uniformly. The seed bed in the third container of soil was covered with the soil treated with the herbicide and antidote and the container was leveled. For each test series, the seed beds of the first and second containers were likewise covered by soil layers. the cover layer of the first container was not treated with herbicide or antidote.
(§2) The containers were then placed on a bench in a greenhouse and sub-irrigated as required for the duration of the test. […] Plant response is measured in terms of percent injury. Antidote efficacy is indicated as the difference in plant injury by the herbicide(s) without the antidote and with the antidote.
(§3) This procedure is the same as Procedure I, but modified in the manner that after incorporation of the chemicals (herbicide and antidote) the containers with the covered seedbed were treated with an initial overhead irrigation equivalent to 0.6 cm rainfall, then subsequently sub-irrigated as required on greenhouse benches.
(§4) In the series of greenhouse tests described below, for routine screening purposes the herbicide/antidote compositions were tested in crop/weed combinations involving corn as the crop and either or both of the weeds barnyardgrass (Echinochloa crusgalli), a monocotyledonous weed, and velvetleaf (Abutilon theophrasti), a dicotyledonous weed. In the tables below, these weeds are indicated by the symbols "BYG" and "VL", respectively.
(§5) In this test, the efficacy of the same five antidotes used in Examples 6 and 7 was investigated in compositions comprising Herbicide No. 1 and as a co-herbicide, butachlor (Herbicide No. 9), active ingredient in MACHETE® herbicide, a leading commercial rice herbicide. The test procedure used in this example was the same as that in Examples 6 and 7.

[3] = test system: velvetleaf (Abutilon theophrasti); assay: as above
Experimental: as §1, §2, §3, §4, §5

corn [4] = assay: Example 10, Procedure II: Herbicide No. 1 + propachlor (No. 5) with antidotes
Experimental: as §1, §2, §3
In this test, the safening effect of various antidotes on the herbicidal combination of Herbicide No. 1 and another α-chloroacetanilide co-herbicide, propachlor, (Herbicide No. 5) was investigated. Propachlor is the active ingredient in the commercial herbicide RAMROD®. Procedure II was also used in this test as in the preceding example.

corn [5] = assay: Example 9, Procedure II: Herbicide No. 1 + pretilachlor (No. 13) with antidotes
Experimental: as §1, §2, §3
In this example the safening effect on a composition comprising Herbicide No. 1 and another leading rice herbicide, i.e., Herbicide No. 13, was investigated using the same antidotes and test procedure described in the preceding example. Herbicide No. 13 is pretilachlor, active ingredient used in the commercial rice herbicides RIFIT®, SOFIT® and SOFIT® SUPER.

[6] = test system: barnyardgrass (Echinochloa crusgalli); assay: Example 21, Procedure II: Herbicide No. 1 + SUTAN PLUS (butylate + antidote) with antidotes
Experimental: as §1, §2, §3, §4
(§6) In this example, tests were conducted as in the preceding Examples 18-20, except here the co-herbicidal component was SUTAN® PLUS, a commercial product comprising as the active herbicidal ingredient the compound butylate (Herbicide No. 10) and an antidote […] (Antidote No. 1). Again, the antidotal compounds herein were Nos. 1, 2, 7, 13 and 15. Procedure II was used.

[7] = test system: velvetleaf (Abutilon theophrasti); assay: as above
Experimental: as §1, §2, §3, §4, §6

[8] = test system: barnyardgrass (Echinochloa crusgalli); assay: Example 6, Procedure II: Herbicide No. 1 + alachlor (No. 7) with antidotes
Experimental: as §1, §2, §3, §4
(§7) This example was designed to investigate the antidotal efficacy of a plurality of antidotal compounds against a composition comprising Herbicide No. 1 in combination with Herbicide No. 7 (alachlor). The antidotal compounds used herein were Nos. 1, 2, 7, 13 and 15.
(§8) In this example, Procedure II described above was followed. The data from the tests in this example is shown in Table 6 and represents averages of duplicate replications.

[9] = test system: velvetleaf (Abutilon theophrasti); assay: as above
Experimental: as §1, §2, §3, §4, §7, §8

corn [10] = assay: Example 21, Procedure II: Herbicide No. 1 + SUTAN PLUS (butylate + antidote) with antidotes
Experimental: as §1, §2, §3, §6

corn [11] = assay: Example 11, Procedure II: Herbicide No. 1 + metazachlor (No. 14) with antidotes
Experimental: as §1, §2, §3
In this example, yet another α-chloroacetanilide co-herbicide, metazachlor (Herbicide No. 14) was combined with Herbicide No. 1 for investigation of the effect of various safeners on that composition. Metazachlor is the active ingredient in the commercial herbicide BUTISAN® S, used here as a 500 g/L formulation.

[12] = Herbicide No.1 0.14 + No.9 2.24 kg/ha + antidote 2.24 kg/ha
[13] = Herbicide No.1 0.14 + No.9 2.24 kg/ha + antidote 8.96 kg/ha
[14] = Herbicide No.1 0.56 + No.9 2.24 kg/ha + antidote 2.24 kg/ha
[15] = Herbicide No.1 0.56 + No.9 2.24 kg/ha + antidote 8.96 kg/ha
[16] = Herbicide No.1 0.56 kg/ha + SUTAN + 8.96 kg/ha, antidote 2.24 kg/ha
[17] = Herbicide No.1 0.56 kg/ha + SUTAN + 8.96 kg/ha, antidote 8.96 kg/ha
[18] = Herbicide No.1 1.12 kg/ha + SUTAN + 8.96 kg/ha, antidote 2.24 kg/ha
[19] = Herbicide No.1 1.12 kg/ha + SUTAN + 8.96 kg/ha, antidote 8.96 kg/ha
[20] = Herbicide No.1 0.14 + No.7 4.48 kg/ha + antidote 2.24 kg/ha
[21] = Herbicide No.1 0.14 + No.7 4.48 kg/ha + antidote 8.96 kg/ha
[22] = Herbicide No.1 0.56 + No.7 4.48 kg/ha + antidote 2.24 kg/ha
[23] = Herbicide No.1 0.56 + No.7 4.48 kg/ha + antidote 8.96 kg/ha

SMILES: CC1(C)OC(c2ccco2)CN1C(=O)C(Cl)Cl (centres unmarked) [compound 15]
- % Injury Corn (corn [1]; Herbicide No.1 0.14 + No.12 3.36 kg/ha + antidote 2.24 kg/ha): 0%
- % Injury Corn (corn [1]; Herbicide No.1 0.14 + No.12 3.36 kg/ha + antidote 8.96 kg/ha): 10%
- % Injury Corn (corn [1]; Herbicide No.1 0.56 + No.12 3.36 kg/ha + antidote 2.24 kg/ha): 15%
- % Injury Corn (corn [1]; Herbicide No.1 0.56 + No.12 3.36 kg/ha + antidote 8.96 kg/ha): 15%
- % Injury BYG [2, 12]: 99%
- % Injury BYG [2, 13]: 98%
- % Injury BYG [2, 14]: 95%
- % Injury BYG [2, 15]: 97%
- % Injury VL [3, 12]: 85%
- % Injury VL [3, 13]: 70%
- % Injury VL [3, 14]: 80%
- % Injury VL [3, 15]: 75%
- % Injury Corn (corn [4]; Herbicide No.1 0.14 kg/ha + Herbicide No.5 4.48 kg/ha, antidote rate 2.24 kg/ha): 0%
- % Injury Corn (corn [4]; Herbicide No.1 0.14 kg/ha + Herbicide No.5 4.48 kg/ha, antidote rate 8.96 kg/ha): 0%
- % Injury Corn (corn [4]; Herbicide No.1 0.56 kg/ha + Herbicide No.5 4.48 kg/ha, antidote rate 2.24 kg/ha): 10%
- % Injury Corn (corn [4]; Herbicide No.1 0.56 kg/ha + Herbicide No.5 4.48 kg/ha, antidote rate 8.96 kg/ha): 10%
- % Injury Corn (corn [5]; Herbicide No.1 0.14 kg/ha + Herbicide No.13 2.24 kg/ha, antidote rate 2.24 kg/ha): 5%
- % Injury Corn (corn [5]; Herbicide No.1 0.14 kg/ha + Herbicide No.13 2.24 kg/ha, antidote rate 8.96 kg/ha): 0%
- % Injury Corn (corn [5]; Herbicide No.1 0.56 kg/ha + Herbicide No.13 2.24 kg/ha, antidote rate 2.24 kg/ha): 15%
- % Injury Corn (corn [5]; Herbicide No.1 0.56 kg/ha + Herbicide No.13 2.24 kg/ha, antidote rate 8.96 kg/ha): 5%
- % Injury BYG [6, 16]: 0%
- % Injury BYG [6, 17]: 10%
- % Injury BYG [6, 18]: 15%
- % Injury BYG [6, 19]: 40%
- % Injury VL [7, 16]: 50%
- % Injury VL [7, 17]: 60%
- % Injury VL [7, 18]: 65%
- % Injury VL [7, 19]: 65%
- % Injury BYG [8, 20]: 100%
- % Injury BYG [8, 21]: 100%
- % Injury BYG [8, 22]: 100%
- % Injury BYG [8, 23]: 100%
- % Injury VL [9, 20]: 80%
- % Injury VL [9, 21]: 65%
- % Injury VL [9, 22]: 90%
- % Injury VL [9, 23]: 95%
- % Injury Corn (corn [10]; [16]): 25%
- % Injury Corn (corn [10]; [17]): 25%
- % Injury Corn (corn [10]; [18]): 30%
- % Injury Corn (corn [10]; [19]): 20%
- % Injury Corn (corn [11]; Herbicide No.1 0.56 kg/ha + Herbicide No.14 3.36 kg/ha, antidote rate 2.24 kg/ha): 65%
- % Injury Corn (corn [11]; Herbicide No.1 0.56 kg/ha + Herbicide No.14 3.36 kg/ha, antidote rate 8.96 kg/ha): 65%
- % Injury Corn (corn [11]; Herbicide No.1 1.12 kg/ha + Herbicide No.14 3.36 kg/ha, antidote rate 2.24 kg/ha): 25%
- % Injury Corn (corn [11]; Herbicide No.1 1.12 kg/ha + Herbicide No.14 3.36 kg/ha, antidote rate 8.96 kg/ha): 40%
